Data on 25 compounds can be found in patent US9115151B2, “Substituted 2,10-dihydro-9-oxa-1,2,4A-triazaphenanthren-3-ones and uses thereof” (AbbVie Inc., priority 2012, dated 2015).

The target of one assay is T1, PKCθ (Homo sapiens, UniProt Q04759).
T1 construct: His6; purchased Millipore; host or cells: baculovirus in Sf21 cells
As to the kind of experiment: In vitro enzyme assay (time-resolved fluorescence kinase assay), PKCθ, 100 μM ATP. The assay is classed as biochemical. In outline:
(§1)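 Read-out was time-resolved fluorescence, corrected for a minus-enzyme blank and converted to percent activity relative to enzyme without drug. They were stopped with EDTA.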

In assay [1] the test system is CD3/CD28 induced IL-2 in human T-Blasts. Kind of assay: T-Blasts CD3/CD28 induced IL-2 assay. Format: cell-based. The following applies: read-out: CD3/CD28-stimulated IL2 in T-blasts EC50. In outline: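 PHA-generated human T-blasts, 2×10^5 per well, preincubated 30 min with 8-point 1/3 compound dilutions in duplicate, then stimulated with anti-CD3+anti-CD28 (5 μg/mL final) for 24 h at 37° C. Supernatant IL-2 measured; MTT toxicity run on remaining cells.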

The next assay has as its target T2, PKCα (Homo sapiens, UniProt P17252).
T2 construct: His6; purchased Millipore; host or cells: baculovirus in Sf21 cells
As to the kind of experiment: In vitro enzyme assay (time-resolved fluorescence kinase assay), PKCα, 100 μM ATP. Format: biochemical. The following applies: 100 μM ATP; read-out: PKCα enzyme IC50. In outline: as §1

Structures can show the parent of a compound that is named as a salt.

The IC50 is the concentration at which inhibition is half-maximal.

T1 sequence (Q04759 whole entry): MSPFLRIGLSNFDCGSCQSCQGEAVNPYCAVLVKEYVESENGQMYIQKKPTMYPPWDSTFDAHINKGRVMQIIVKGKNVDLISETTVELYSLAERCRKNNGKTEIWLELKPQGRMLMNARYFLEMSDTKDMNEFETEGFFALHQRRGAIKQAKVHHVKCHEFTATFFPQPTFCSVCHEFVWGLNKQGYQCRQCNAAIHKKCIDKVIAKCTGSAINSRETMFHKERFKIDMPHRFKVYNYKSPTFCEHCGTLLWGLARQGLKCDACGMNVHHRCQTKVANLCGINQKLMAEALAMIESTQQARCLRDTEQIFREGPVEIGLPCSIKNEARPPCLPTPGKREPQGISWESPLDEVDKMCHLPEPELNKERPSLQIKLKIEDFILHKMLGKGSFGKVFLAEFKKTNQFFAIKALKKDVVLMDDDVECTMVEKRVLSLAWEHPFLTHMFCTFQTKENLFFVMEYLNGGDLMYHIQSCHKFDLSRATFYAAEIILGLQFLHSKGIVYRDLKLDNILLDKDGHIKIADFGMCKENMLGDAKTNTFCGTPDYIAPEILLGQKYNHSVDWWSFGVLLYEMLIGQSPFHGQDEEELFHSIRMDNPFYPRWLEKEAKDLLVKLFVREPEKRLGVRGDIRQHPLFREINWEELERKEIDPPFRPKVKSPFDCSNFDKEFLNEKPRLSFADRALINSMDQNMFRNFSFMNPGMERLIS

For `C[C@@H]1C(=O)NN=C2COc3cc(-c4ccccc4F)c(N(C)[C@@]4(C)CCN(C)C4)cc3N21` (single isomer, unassigned) [Example 198-3], the half-maximal inhibitory concentration (IC50) on PKCθ was under 250 nM; on PKCα, 250 to 1000 nM. Also, in assay [1], the EC50 was under 250 nM.
Turning to `CC1C(=O)NN=C2COc3cc(C(F)(F)F)c(C4CCNCC4)cc3N21` (stereo not drawn) [Example 120, 1-Methyl-9-(piperidin-4-yl)-8-(trifluoromethyl)-3,5-dihydrobenzo[5,6][1,4]oxazino[3,4-c][1,2,4]triazin-2(1H)-one trifluoroacetic acid], the values for the IC50 on PKCθ and on PKCα were under 250 nM and 1000 to 10000 nM, respectively. The EC50 in assay [1] lay within 250 to 1000 nM.
On the same counts, the results for `CC1C(=O)NN=C2COc3cc(-c4ccoc4)c(N(C)C4(C)CN(C)C4)cc3N21` (stereo not drawn) [Example 173] are under 250 nM, 1000 to 10000 nM and 250 to 1000 nM.
Turning to `Cc1ccc(-c2cc3c(cc2NC2CNC2)N2C(=NNC(=O)C2C)CO3)cc1F` (racemic) [Example 18], the IC50 is under 250 nM against PKCθ and 1000 to 10000 nM on PKCα. In addition, in assay [1], the EC50 is under 250 nM.
With `CC1C(=O)NN=C2COc3cc(Br)c(NC4CNC4)cc3N21` (stereo not drawn) [Example 85, 6-(Azetidin-3-ylamino)-7-bromo-4-methyl-2,10-dihydro-9-oxa-1,2,4a-triaza-phenanthren-3-one trifluoroacetic acid], the IC50 at PKCθ was under 250 nM; at PKCα, 1000 to 10000 nM. The EC50 in assay [1] was 250 to 1000 nM.
On the same counts, the results for `CC1C(=O)NN=C2COc3cc(-c4ccc(Cl)cc4Cl)c(NC4CNC4)cc3N21` (racemic) [Example 43] are under 250 nM, 1000 to 10000 nM and under 250 nM.
Regarding `CC1C(=O)NN=C2COc3ccc(NC4(C(C)C)CNC4)cc3N21` (stereo not drawn) [Example 113, 9-((3-Isopropylazetidin-3-yl)amino)-1-methyl-3,5-dihydrobenzo[5,6][1,4]oxazino[3,4-c][1,2,4]triazin-2(1H)-one trifluoroacetic acid], the IC50 against PKCθ is under 250 nM; on PKCα it was 1000 to 10000 nM. Also, the EC50 in assay [1] was under 250 nM.
As for `Cc1cc(-c2cc3c(cc2NC2CNC2)N2C(=NNC(=O)C2C)CO3)ccc1F` (racemic) [Example 32], the IC50 was under 250 nM at PKCθ and 1000 to 10000 nM on PKCα. Besides, in assay [1], the EC50 fell in the range of 250 to 1000 nM.
Take `CC1C(=O)NN=C2COc3cc(C(C)C(F)(F)F)c(NC4CNC4)cc3N21` (stereo not drawn) [Example 112, 9-(Azetidin-3-ylamino)-1-methyl-8-(1,1,1-trifluoropropan-2-yl)-3,5-dihydrobenzo[5,6][1,4]oxazino[3,4-c][1,2,4]triazin-2(1H)-one trifluoroacetic acid salt]: the IC50 on PKCθ and at PKCα was 1000 to 10000 nM throughout. Moreover, in assay [1], the EC50 was 1000 to 10000 nM.
Regarding `CC(=O)N1CC(C)(N(C)c2cc3c(cc2-c2ccccc2F)OCC2=NNC(=O)[C@@H](C)N23)C1` [Example 183, (R)-6-[(1-Acetyl-3-methyl-azetidin-3-yl)-methyl-amino]-7-(2-fluoro-phenyl)-4-methyl-2,10-dihydro-9-oxa-1,2,4a-triaza-phenanthren-3-one], the IC50 was under 250 nM against PKCθ and 1000 to 10000 nM on PKCα. Further, the EC50 in assay [1] lay within 250 to 1000 nM.
On the same counts, the results for `Cc1cc2c(cc1N(C)C1CNC1)N1C(=NNC(=O)C1C)CO2` (stereo not drawn) [Example 55, 6-(Azetidin-3-yl-methyl-amino)-4,7-dimethyl-2,10-dihydro-9-oxa-1,2,4a-triaza-phenanthren-3-one trifluoroacetic acid] are 250 to 1000 nM, 1000 to 10000 nM and 1000 to 10000 nM.
On to `C[C@@H]1C(=O)NN=C2COc3cc(-c4ccccc4F)c([C@@H](C)C4(C)CN(CC5COC5)C4)cc3N21` [Example 144], for which the IC50 against PKCθ is under 250 nM; on PKCα it was 1000 to 10000 nM. Further, the EC50 in assay [1] lay within 250 to 1000 nM.
With `CC1C(=O)NN=C2COc3cc(C(F)(F)F)c(C4CCNC(Cc5ccccc5)C4)cc3N21` (stereo not drawn) [Example 116, 9-(2-Benzylpiperidin-4-yl)-1-methyl-8-(trifluoromethyl)-3,5-dihydrobenzo[5,6][1,4]oxazino[3,4-c][1,2,4]triazin-2(1H)-one trifluoroacetic acid], the values for the IC50 against PKCθ and at PKCα were under 250 nM and 1000 to 10000 nM, respectively. Moreover, the EC50 in assay [1] was 250 to 1000 nM.
As for `C[C@@H]1C(=O)NN=C2COc3cc(-c4ccccc4F)c(N(C)C4(C)CN(C(=O)C(F)(F)F)C4)cc3N21` [Example 186], the half-maximal inhibitory concentration (IC50) at PKCθ lay in the range of 250 to 1000 nM; at PKCα, 1000 to 10000 nM. Moreover, the EC50 in assay [1] lay in the range of 250 to 1000 nM.
In the case of `C[C@@H]1C(=O)NN=C2COc3cc(-c4cccc(CO)c4)c(N(C)C4(C)CN(C)C4)cc3N21` [Example 179], the IC50 against PKCθ was under 250 nM; at PKCα, 250 to 1000 nM. Further, in assay [1], the EC50 was under 250 nM.
Take `C[C@@H]1C(=O)NN=C2COc3cc(-c4ccccc4F)c(N(C)[C@]4(C)CCN(C)C4)cc3N21` (single isomer, unassigned) [Example 198-4]: the half-inhibitory concentration (IC50) against PKCθ was under 250 nM; at PKCα, 250 to 1000 nM. For the same compound, the EC50 in assay [1] is under 250 nM.
On to `Cc1cc2c(cc1NC1CNC1)N1C(=NNC(=O)[C@@H]1C)CO2` (single isomer, unassigned) [Example 54-2, trifluoroacetic acid], for which the IC50 lay within 250 to 1000 nM against PKCθ and 1000 to 10000 nM on PKCα. For the same compound, in assay [1], the EC50 was 1000 to 10000 nM.
On to `CC1C(=O)NN=C2COc3cc(-c4cccc(C(F)(F)F)c4)c(NC4CNC4)cc3N21` (racemic) [Example 24], for which the figures for the concentration for half-maximal inhibition (IC50) at PKCθ and at PKCα were 250 to 1000 nM and 1000 to 10000 nM, respectively. Besides, the EC50 in assay [1] is under 250 nM.
Turning to `C[C@H](O)CN1CC(C)(N(C)c2cc3c(cc2-c2ccccc2F)OCC2=NNC(=O)[C@@H](C)N23)C1` [Example 188], the half-maximal inhibitory concentration (IC50) against PKCθ and at PKCα was under 250 nM throughout. The EC50 in assay [1] was under 250 nM.
Consider `CC1C(=O)NN=C2COc3cc(Oc4ccccc4)c(NC4CNC4)cc3N21` (stereo not drawn) [Example 106, 6-(Azetidin-3-ylamino)-4-methyl-7-phenoxy-2,10-dihydro-9-oxa-1,2,4a-triaza-phenanthren-3-one trifluoroacetic acid], for which the IC50 against PKCθ was under 250 nM; on PKCα, 1000 to 10000 nM. The EC50 in assay [1] fell in the range of 250 to 1000 nM.
On to `C[C@@H]1C(=O)NN=C2COc3cc(-c4ccccc4Cl)c(NC4CNC4)cc3N21` [Example 2], for which the IC50 was under 250 nM against PKCθ and 250 to 1000 nM on PKCα. Also, the EC50 in assay [1] is under 250 nM.
In the case of `CC(C)c1cc2c(cc1[C@@H]1CCN(C)C[C@@H]1C)N1C(=NNC(=O)[C@H]1C)CO2` [Example 244], the IC50 against PKCθ was under 250 nM; at PKCα, 250 to 1000 nM. Also, the EC50 in assay [1] was under 250 nM.
Turning to `C[C@@H]1C(=O)NN=C2COc3cc(C4=CCC(F)(F)CC4)c(N(C)C4(C)CN(C)C4)cc3N21` [Example 182], the IC50 was under 250 nM against PKCθ and 1000 to 10000 nM on PKCα. Further, the EC50 in assay [1] lay within 250 to 1000 nM.
Take `Cc1ccccc1-c1cc2c(cc1NC1CNC1)N1C(=NNC(=O)C1C)CO2` (racemic) [Example 48]: the values for the IC50 against PKCθ and on PKCα were under 250 nM and 1000 to 10000 nM, respectively. The EC50 in assay [1] is under 250 nM.
As to `Cc1ccc(-c2cc3c(cc2N(C)C2(C)CN(C)C2)N2C(=NNC(=O)C2C)CO3)cc1` (stereo not drawn) [Example 167], the IC50 is under 250 nM at PKCθ and 250 to 1000 nM at PKCα. In addition, the EC50 in assay [1] was under 250 nM.
